According to publication PMC5449446, “Metabolic Value Chemoattractants Are Preferentially Recognized at Broad Ligand Range Chemoreceptor of Pseudomonas putida KT2440” (Frontiers in Microbiology, 2017):

Columns and labels:
Tar-LBD = tested on: Tar-LBD; design: method as in Milligan and Koshland, 1993; details: estimated; ref Milligan and Koshland, 1993; cited from earlier work
PcaY_PP-LBD [1] = molecular target: T1, PcaY_PP-LBD (Pseudomonas putida, UniProt Q88JK6); design: species or system Pseudomonas putida KT2440; details: saturating ligand (400 μM), 10°C
T1 construct: His-tag (from the pET28b vector; inferred from NdeI/BamHI cloning and HisTrap purification) (N); made in house; host or cells: Escherichia coli BL21 (DE3)
Description: Experiments were performed in a Beckman Coulter Optima XL-A analytical ultracentrifuge (Beckman-Coulter, Palo Alto, CA, United States) equipped with UV-visible absorbance detection system, using an An50Ti 8-hole rotor, 12 mm path-length charcoal-filled epon double-sector centerpieces. The sedimentation velocity (SV) experiments were carried out at a rotor speed of 40,000 rpm and 10°C using 400 μl samples in analysis buffer. […] Analysis buffer with or without ligands was used as reference. […] A least squares boundary modeling of the SV data was used to calculate sedimentation coefficient distributions with the size-distribution c(s) method ([Schuck, 2000]) implemented in the SEDFIT v11.71 software. […] The multi-speed sedimentation equilibrium experiments were carried out at 10°C and 12,000, 14,000, and 18,000 rpm until equilibrium was reached. […] Generally two wavelengths were used per sample.

P. putida KT2440 = experiment: Growth in M9 minimal medium with ligand as sole C-source; type: cell-based, Pseudomonas putida KT2440; details: 10 mM (2 mM for poorly soluble) ligand
Description: P. putida KT2440R was grown in the same medium supplemented with rifampicin (10 μg ml^-1). […] When necessary, the pH of the medium was adjusted to 7.0 prior to inoculation. Bacterial growth rates were monitored by measuring the OD660 until cultures reached the stationary phase. The growth rate during the exponential growth (m) was calculated according to m = (LnOD2-LnOD1).(t2-t1)^-1, where OD2/t2 and OD1/t1 correspond to the OD660/time at the end and the beginning of the time interval. The generation time (G) was defined by G = Ln2 μ^-1. […] Normalized growth yield per carbon source after 24 h was determined applying correlation factors between cell dry weight and OD660 determined in batch cultures and assuming that all the carbon source was consumed during growth. Data were fitted by linear least squares regression or submitted to the chi-squared test with Yates correction using in both cases the Graph Pad Prism v7.02 software.

[2] = tested on: Pseudomonas putida KT2440; experiment: Quantitative capillary chemotaxis assay; type: cell-based; details: 30 min, wild type KT2440
Description: Subsequently, the cells were re-suspended in the same buffer, adjusted to an OD660 of 0.15 and 230 μl aliquots of this bacterial culture were placed into 96-well plates. For the quantitative assays, one-microliter capillary tubes (Microcaps, Drummond Scientific, Ref. […]) were heat-sealed at one end and filled with either the chemotaxis buffer (negative control) or chemotaxis buffer containing the chemoeffector. The capillaries were immersed into the bacterial suspension and incubated for 30 min at room temperature. Capillaries were subsequently removed from the bacterial suspension, rinsed with sterile water and the content expelled into 1 ml of M9 medium. Serial dilutions were plated onto LB medium (containing the appropriate antibiotics) and the number of colony forming units was determined. In all cases, data were corrected with the number of cells that swam into buffer containing capillaries.

PcaY_PP-LBD [3] = molecular target: T1, PcaY_PP-LBD; experiment: biochemical; type: binding, Pseudomonas putida KT2440; details: for ∆G / ∆H: ITC
Description: Experiments were carried out at 25°C using a VP-ITC titration calorimeter (Microcal Inc., Northampton, Massachusetts). […] Obtained data were corrected with the heat changes measured for the injection of ligand into buffer. Data were normalized with the protein concentration (Bradford assay) and fitted with the “One Binding Site” model of the MicroCal version of the ORIGIN 7.0 software (OriginLab Corporation, Northampton, MA, United States), leaving all parameters floating.

MCP2983 = tested on: MCP2983; design: method as in Ni et al., 2015; details: ref Ni et al., 2015; cited from earlier work
McpP = molecular target: McpP; design: method as in ref (6) (a number printed in a supplementary file, which may have a reference list of its own: not looked up in the article's list); details: ITC, purified recombinant LBD; ref (6); cited from earlier work
McpS = molecular target: McpS; design: method as in ref (7-9) (a number printed in a supplementary file, which may have a reference list of its own: not looked up in the article's list); details: ITC, purified recombinant LBD; ref (7-9); cited from earlier work
[4] = molecular target: the molecule itself; experiment: AUC; sedimentation velocity with saturating quinate or shikimate (400 uM), 40,000 rpm, 10°C, analysis buffer (5 mM PIPES, 5 mM MES, 5 mM Tris-HCl, pH 8.0)
[5] = molecular target: the molecule itself; experiment: AUC; multi-speed, multi-wavelength sedimentation equilibrium, ligand-free protein, six concentrations 15-280 uM, 12,000, 14,000 and 18,000 rpm, 10°C, analysis buffer pH 8.0; global fit to a monomer-dimer self-association model (SEDPHAT); dimer to monomers

Molecule: N[C@@H](CC(=O)O)C(=O)O [aspartate]
- decrease of the dimer self-association constant, factor (Tar-LBD): around 100

Molecule: O=C(O)[C@]1(O)C[C@@H](O)[C@@H](O)[C@H](O)C1 [Quinate, quinate]
- sedimentation coefficient s20,w of PcaY_PP-LBD in presence of ligand (PcaY_PP-LBD [1]): 3.1 S
- capacity to support growth as sole carbon source (P. putida KT2440): supported bacterial growth
- chemotactic response [2]: very strong responses
- Kd (PcaY_PP-LBD [3]): 3.7 µM
- ∆G (PcaY_PP-LBD [3]): -7.40 ± 0.02 kcal/mol
- ∆H (PcaY_PP-LBD [3]): -13.2 ± 0.4 kcal/mol

Molecule: O=C(O)C1=CC(O)C(O)C(O)C1 (stereo not drawn) [Shikimate, shikimate]
- sedimentation coefficient s20,w of PcaY_PP-LBD in presence of ligand (PcaY_PP-LBD [1]): 3.1 S
- chemotactic response [2]: very strong responses
- Kd (PcaY_PP-LBD [3]): 4.4 µM
- ∆G (PcaY_PP-LBD [3]): -7.30 ± 0.1 kcal/mol
- ∆H (PcaY_PP-LBD [3]): -16.6 ± 1.1 kcal/mol

Molecule: O=C(O)/C=C(/CC(=O)O)C(=O)O [cis-aconitate]
- binding to recombinant LBD (MCP2983): recognized
- KD (PcaY_PP-LBD [3]; ITC at 25°C, 25 μM protein, One Binding Site model, means and SD of three experiments): did not show any binding

Molecule: CC(=O)O [Acetate]
- Kd (McpP): 34 µM
- Kd (McpS): 574 µM

B1: PcaY_PP-LBD, recombinant ligand binding domain of the PcaY_PP (PP2643) chemoreceptor of Pseudomonas putida KT2440 (domain or fragment, UniProt Q88JK6 44-196, looked up)
chain: GSDQQITELDQTAHQSDRLNNALLMAIRSSANVSSGFIEQLGGHDESAGKRMALSVELNNKSQALVDEFVENAREPALRGLATELQATFAEYAKAVAGQREATRQRSLEQYFKVNSDAGNAMGRLQTLRQQLVTTLSERGQQIMLESDRRLAR
notes: Cloned NdeI/BamHI into pET28b with a stop codon in the reverse primer; No tag removal is described
- stoichiometry N [4]: 2
- Kd [5]: 57.5 µM
